Marks after values point to notes of the source that are not given here.
Experiments:
indoxyl sulfate = experiment: Human clinical trial in CKD patients: indoxyl sulfate in plasma and early morning urine (LC-MS/MS); format: in vivo; set-up: key to Influence on concentration of IS / Influence on IS U/P ratio: Excellent effects: ◯; Poor effects: X; No significant difference: —; (◯): whether or not there is an effect of promoting excretion of indoxyl sulfate into the urine cannot be determined
Protocol: (§1) 1. […] Patients were assigned to each group so that age, sex, presence of diabetes, and eGFR were not biased. Each group was treated according to the “CKD medical care guide-summary of treatment” (hereinafter referred to as standard treatment).
(§2) An alkalinizing agent was not administered to the control group. […] A pH of early morning urine was controlled over time so that the dosage could be increased up to 6 tablets, 3 times a day (morning, noon, evening) as needed according to the discretion of the physician in cases where a pH of early morning urine was less than pH 6.5. To the group B, 3 tablets a day in which each tablet contained 500 mg of sodium bicarbonate were orally administered 3 times a day (morning, noon, evening) for 24 weeks. A pH of early morning urine was controlled over time so that the dosage could be increased up to 6 tablets, 3 times a day (morning, noon, evening) as needed according to the discretion of the physician in cases where a pH of early morning urine was less than pH 6.5.
(§3) Early morning urine and blood were collected before the start of administration, and 6 weeks, 12 weeks, and 24 weeks after the start of administration, and each specimen was stored at −80° C. Methods used in the present field for indoxyl sulfate, p-cresyl sulfate, phenylacetyl-L-glutamine, hippuric acid, and argininosuccinic acid in urine and blood (Sato, E., et. al., Metabolic alteration by indoxyl sulfate in skeletal muscle induce uremic sarcopenia in chronic kidney disease., Sci Rep. 2016 Nov. 10; 6:36618. doi: 10.1038/srep36618, and the like) were referred to, and quantitative analysis was performed using the following liquid chromatography triple quadrupole mass spectrometer (LC-MS/MS).
For LC, NANOSPACE SI-2 (manufactured by Shiseido) was used, and […] MGM was selected as the analytical column.
For MS, TSQ Quantiva (manufactured by Thermo Fisher Scientific Co., Ltd.) was used, and five compounds were ionized in the negative mode and detected using the Selected Reaction Monitoring method. The quantitative value was calculated using a calibration curve prepared with a standard solution of each compound.
(§4) For statistical analysis, the Mann-Whitney test was used for comparison between groups, and the Wilcoxon test was used for comparison of changes over time. The Pearson test was used for correlation.
Then, the average value and SD of each group were calculated for (i) to (ix) above. For each of (iv) to (ix) above, the average value and SD of each group were calculated for all data of 6 weeks, 12 weeks, and 24 weeks after the start of administration in each group.

β2-microglobulin = experiment: Human clinical trial: urinary β2-microglobulin (latex agglutination method); format: in vivo
Protocol: as §1, §2, §3
In addition, the amount of urinary β2-microglobulin was measured by latex agglutination method using the LZ test “Eiken” β2-M and LZ-β2-M standard U “Eiken” (Eiken Chemical Co., Tokyo, Japan). Furthermore, the amount of cystatin C in the serum was measured by a colloidal gold agglutination method using Nescoat GC Cystatin C (Nm) (Alfresa Pharma, Osaka, Japan).
as §4

p-cresyl sulfate = experiment: Urine p-cresyl sulfate (PCS) corrected by urinary specific gravity; format: in vivo, human
Text: (§5) Medical Examination, Vol. 44, No. 1, 1995, pages 79-83 by Tetsuo Aoki et al. was referred to. A urinary specific gravity 1.022 was converted into a reference value.
(§6) Specific gravity correction value (unit/1.022·UG)=actual measurement value×(1.022−1.000)/(specific gravity value−1.000)

phenylacetyl-L-glutamine = experiment: Urine phenylacetyl-L-glutamine (PAG) corrected by urinary specific gravity; format: in vivo, human
Text: as §5, §6

argininosuccinic acid = experiment: Urine argininosuccinic acid (ASA) corrected by urinary specific gravity; format: in vivo, human
Text: as §5, §6

[1] = 0 W, before the start of administration
[2] = 6-24 W, all data of 6, 12 and 24 weeks
[3] = compared to before administration

O=C([O-])O.[Na+] [Bicarbonate, sodium bicarbonate]
Indoxyl Sulfate-Urine/Plasma ratio (indoxyl sulfate; [1]): 55.5 ± 43.6 | Plasma Indoxyl Sulfate (indoxyl sulfate; [1]): 1338 ± 770 ng/mL | Urine Indoxyl Sulfate (early morning urine) (indoxyl sulfate; [1]): 54379 ± 40259 ng/mL | Indoxyl Sulfate-Urine/Plasma ratio (indoxyl sulfate; [2]): 46.2 ± 33.7^d | Indoxyl Sulfate-Urine/Plasma ratio, change from week 0 (indoxyl sulfate; [2]): −10.33 ± 36.35 | Plasma Indoxyl Sulfate (indoxyl sulfate; [2]): 1426 ± 930 ng/mL | Plasma Indoxyl Sulfate, change from week 0 (indoxyl sulfate; [2]): 107.0 ± 695.8 ng/mL | Urine Indoxyl Sulfate (early morning urine) (indoxyl sulfate; [2]): 48954 ± 35769^d ng/mL | Urine Indoxyl Sulfate, change from week 0 (indoxyl sulfate; [2]): -5425 ± 38514 ng/mL | Indoxyl Sulfate-Urine/Plasma ratio (indoxyl sulfate; 6 W): 51.7 ± 36.4 | Indoxyl Sulfate-Urine/Plasma ratio, change from week 0 (indoxyl sulfate; 6 W): −3.81 ± 37.48 | Plasma Indoxyl Sulfate (indoxyl sulfate; 6 W): 1365 ± 821 ng/mL | Plasma Indoxyl Sulfate, change from week 0 (indoxyl sulfate; 6 W): 27.5 ± 523.0 ng/mL | Urine Indoxyl Sulfate (early morning urine) (indoxyl sulfate; 6 W): 52510 ± 39229 ng/mL | Urine Indoxyl Sulfate, change from week 0 (indoxyl sulfate; 6 W): -1869 ± 19390 ng/mL | Indoxyl Sulfate-Urine/Plasma ratio (indoxyl sulfate; 12 W): 35.3 ± 26.4 | Indoxyl Sulfate-Urine/Plasma ratio, change from week 0 (indoxyl sulfate; 12 W): −22.41 ± 35.49 | Plasma Indoxyl Sulfate (indoxyl sulfate; 12 W): 1432 ± 1031 ng/mL | Plasma Indoxyl Sulfate, change from week 0 (indoxyl sulfate; 12 W): 153.1 ± 887.4 ng/mL | Urine Indoxyl Sulfate (early morning urine) (indoxyl sulfate; 12 W): 37860 ± 26401 ng/mL | Urine Indoxyl Sulfate, change from week 0 (indoxyl sulfate; 12 W): -16519 ± 40380 ng/mL | Indoxyl Sulfate-Urine/Plasma ratio (indoxyl sulfate; 24 W): 50.7 ± 36.5^c | Indoxyl Sulfate-Urine/Plasma ratio, change from week 0 (indoxyl sulfate; 24 W): −4.78 ± 35.33 | Plasma Indoxyl Sulfate (indoxyl sulfate; 24 W): 1481 ± 988 ng/mL | Plasma Indoxyl Sulfate, change from week 0 (indoxyl sulfate; 24 W): 143.4 ± 682.5 ng/mL | Urine Indoxyl Sulfate (early morning urine) (indoxyl sulfate; 24 W): 56492 ± 39593 ng/mL | Urine Indoxyl Sulfate, change from week 0 (indoxyl sulfate; 24 W): 2113 ± 49356 ng/mL | Influence on concentration of IS (indoxyl sulfate; Plasma, comparison with Cont): — | Influence on concentration of IS (indoxyl sulfate; Plasma, comparison with reference drug): X | Influence on IS U/P ratio (indoxyl sulfate; comparison with Cont): ◯ | Influence on IS U/P ratio (indoxyl sulfate; comparison with reference drug): X | Influence on concentration of IS (indoxyl sulfate; Urine, comparison with Cont): (◯) | Influence on concentration of IS (indoxyl sulfate; Urine, comparison with reference drug): X | concentration of indoxyl sulfate in blood (indoxyl sulfate; [3]): such an effect was not recognized | concentration of indoxyl sulfate in urine (indoxyl sulfate; [3]): such an effect was not recognized | Urine B2-microglobulin (β2-microglobulin; [1]): 99.0 ± 62.8 µg/L | Urine B2-microglobulin (β2-microglobulin; [2]): 206.2 ± 255.8^a μg/L | Urine B2-microglobulin, change from week 0 (β2-microglobulin; [2]): 148.3 ± 258.4 ^b ug/L | Urine B2-microglobulin (β2-microglobulin; 6 W): 216.3 ± 228.2^e μg/L | Urine B2-microglobulin, change from week 0 (β2-microglobulin; 6 W): 117.3 ± 220.7 µg/L | Urine B2-microglobulin (β2-microglobulin; 12 W): 264.5 ± 301.9 µg/L | Urine B2-microglobulin, change from week 0 (β2-microglobulin; 12 W): 165.5 ± 282.0^ ug/L | Urine B2-microglobulin (β2-microglobulin; 24 W): 261.0 ± 301.5^c,f μg/L | Urine B2-microglobulin, change from week 0 (β2-microglobulin; 24 W): 162.0 ± 281.8 ^c ug/L | kidney tubular damage (kidney proximal tubular damage) associated with progression of the stage (β2-microglobulin; from urinary β2-microglobulin): did not suppress | Urine PCS, specific gravity corrected (p-cresyl sulfate; 0 W): 113.0 ± 119.5 μg · mL^−1/1.022 · UG | Urine PCS, specific gravity corrected (p-cresyl sulfate; 6-24 W, all data): 83.2 ± 93.2 μg · mL^−1/1.022 · UG | Urine PCS, specific gravity corrected, % Relative value vs week 0 (p-cresyl sulfate; 6-24 W, all data): 151 ± 323^b,e % | Urine PCS, specific gravity corrected, difference vs week 0 (p-cresyl sulfate; 6-24 W, all data): −29.8 ± 66.1^b,d μg · mL^−1/1.022 · UG | Urine PCS, specific gravity corrected (p-cresyl sulfate; 6 W): 98.1 ± 118.3 μg · mL^−1/1.022 · UG | Urine PCS, specific gravity corrected, % Relative value vs week 0 (p-cresyl sulfate; 6 W): 83 ± 34^d,g % | Urine PCS, specific gravity corrected (p-cresyl sulfate; 12 W): 66.7 ± 73.0 μg · mL^−1/1.022 · UG | Urine PCS, specific gravity corrected, % Relative value vs week 0 (p-cresyl sulfate; 12 W): 105 ± 112% | Urine PCS, specific gravity corrected, difference vs week 0 (p-cresyl sulfate; 12 W): −46.3 ± 68.4^d,g μg · mL^−1/1.022 · UG | Urine PCS, specific gravity corrected (p-cresyl sulfate; 24 W): 84.8 ± 86.0 μg · mL^−1/1.022 · UG | Urine PCS, specific gravity corrected, % Relative value vs week 0 (p-cresyl sulfate; 24 W): 265 ± 540% | Urine PCS, specific gravity corrected, difference vs week 0 (p-cresyl sulfate; 24 W): −28.3 ± 84.4^ μg · mL^−1/1.022 · UG | Urine PAG, specific gravity corrected (phenylacetyl-L-glutamine; 0 W): 203.6 ± 169.1 μg · mL^−1/1.022 · UG | Urine PAG, specific gravity corrected (phenylacetyl-L-glutamine; 6-24 W, all data): 162.0 ± 182.5 μg · mL^−1/1.022 · UG | Urine PAG, specific gravity corrected, % Relative value vs week 0 (phenylacetyl-L-glutamine; 6-24 W, all data): 87 ± 60% | Urine PAG, specific gravity corrected, difference vs week 0 (phenylacetyl-L-glutamine; 6-24 W, all data): −41.6 ± 126.8 μg · mL^−1/1.022 · UG | Urine PAG, specific gravity corrected (phenylacetyl-L-glutamine; 6 W): 202.9 ± 260.9 μg · mL^−1/1.022 · UG | Urine PAG, specific gravity corrected, % Relative value vs week 0 (phenylacetyl-L-glutamine; 6 W): 97 ± 71% | Urine PAG, specific gravity corrected, difference vs week 0 (phenylacetyl-L-glutamine; 6 W): −0.7 ± 162.0 μg · mL^−1/1.022 · UG | Urine PAG, specific gravity corrected, % Relative value vs week 0 (phenylacetyl-L-glutamine; 12 W): 76 ± 60% | Urine PAG, specific gravity corrected, difference vs week 0 (phenylacetyl-L-glutamine; 12 W): −67.6 ± 91.9 ^ μg · mL^−1/1.022 · UG | Urine PAG, specific gravity corrected (phenylacetyl-L-glutamine; 24 W): 147.1 ± 116.4 μg · mL^−1/1.022 · UG | Urine PAG, specific gravity corrected, % Relative value vs week 0 (phenylacetyl-L-glutamine; 24 W): 88 ± 49% | Urine PAG, specific gravity corrected, difference vs week 0 (phenylacetyl-L-glutamine; 24 W): −56.5 ± 113.7 μg · mL^−1/1.022 · UG | Urine ASA, specific gravity corrected (argininosuccinic acid; 0 W): 5.87 ± 5.13 μg · mL^−1/1.022 · UG | Urine ASA, specific gravity corrected (argininosuccinic acid; 6-24 W, all data): 5.02 ± 3.37 μg · mL^−1/1.022 · UG | Urine ASA, specific gravity corrected, % Relative value vs week 0 (argininosuccinic acid; 6-24 W, all data): 97 ± 31% | Urine ASA, specific gravity corrected, difference vs week 0 (argininosuccinic acid; 6-24 W, all data): −0.85 ± 2.76 μg · mL^−1/1.022 · UG | Urine ASA, specific gravity corrected (argininosuccinic acid; 6 W): 5.47 ± 3.87 μg · mL^−1/1.022 · UG | Urine ASA, specific gravity corrected, % Relative value vs week 0 (argininosuccinic acid; 6 W): 101 ± 32% | Urine ASA, specific gravity corrected, difference vs week 0 (argininosuccinic acid; 6 W): −0.40 ± 2.25 μg · mL^−1/1.022 · UG | Urine ASA, specific gravity corrected (argininosuccinic acid; 12 W): 4.66 ± 2.78 μg · mL^−1/1.022 · UG | Urine ASA, specific gravity corrected, % Relative value vs week 0 (argininosuccinic acid; 12 W): 93 ± 29% | Urine ASA, specific gravity corrected, difference vs week 0 (argininosuccinic acid; 12 W): −0.21 ± 3.04 μg · mL^−1/1.022 · UG | Urine ASA, specific gravity corrected (argininosuccinic acid; 24 W): 4.93 ± 3.58 μg · mL^−1/1.022 · UG | Urine ASA, specific gravity corrected, % Relative value vs week 0 (argininosuccinic acid; 24 W): 97 ± 33% | Urine ASA, specific gravity corrected, difference vs week 0 (argininosuccinic acid; 24 W): −0.94 ± 3.02 μg · mL^−1/1.022 · UG

Source: patent US20210121426A1, “BLOOD PURIFICATION BY ALKALINIZING AGENT” (TOHOKU UNIVERSITY, priority 2017, published 2021)
